Columns and labels:
Details in all cases: stereoisomer not certain
[1] = RP, Merck Supelco Ascentis Express C18, 100 × 2.1 mm, 2 µm, 40 °C, 0.2 mL/min, estimated dead time 1.1 min; A: water + 0.1% formic acid, pH 3; B: acetonitrile + 0.1% formic acid, pH 3; gradient (min/%B) 0/5 2/5 17/99.9 20/99.9
[2] = RP, Merck Supelco Ascentis Express C18, 100 × 2.1 mm, 2 µm, 39 °C, 0.3 mL/min, estimated dead time 0.73 min; A: water + 0.1% formic acid, pH 3; B: acetonitrile + 0.1% formic acid, pH 3; gradient (min/%B) 0/5 2/5 17/99.9 20/99.9
[3] = RP, Merck Supelco Ascentis Express C18, 100 × 2.1 mm, 2 µm, 40 °C, 0.25 mL/min, estimated dead time 0.88 min; A: water + 0.1% formic acid, pH 3; B: acetonitrile + 0.1% formic acid, pH 3; gradient (min/%B) 0/5 2/5 17/99.9 20/99.9
[4] = RP, Merck Supelco Ascentis Express C18, 100 × 2.1 mm, 2 µm, 40 °C, 0.2 mL/min, estimated dead time 1.1 min; A: water + 0.1% formic acid, pH 3; B: acetonitrile + 0.1% formic acid, pH 3; gradient (min/%B) 0/5 2/5 17/99.9 20/99.9; remark: listed apart in the source
[5] = RP, Merck Supelco Ascentis Express C18, 100 × 2.1 mm, 2 µm, 40 °C, 0.4 mL/min, estimated dead time 0.55 min; A: water + 0.1% formic acid, pH 3; B: acetonitrile + 0.1% formic acid, pH 3; gradient (min/%B) 0/5 2/5 17/99.9 20/99.9
[6] = RP, Merck Supelco Ascentis Express C18, 100 × 2.1 mm, 2 µm, 40 °C, 0.35 mL/min, estimated dead time 0.63 min; A: water + 0.1% formic acid, pH 3; B: acetonitrile + 0.1% formic acid, pH 3; gradient (min/%B) 0/5 2/5 17/99.9 20/99.9
[7] = RP, Merck Supelco Ascentis Express C18, 100 × 2.1 mm, 2 µm, 40 °C, 0.4 mL/min, estimated dead time 0.55 min; A: water + 0.1% formic acid, pH 3; B: acetonitrile + 0.1% formic acid, pH 3; gradient (min/%B) 0/5 2/5 17/99.9 20/99.9; remark: listed apart in the source

Row | LC retention time [1] [min] | LC retention time [2] [min] | LC retention time [3] [min] | LC retention time [4] [min] | LC retention time [5] [min] | LC retention time [6] [min] | LC retention time [7] [min] | SMILES
1 | 1.6 | 1.05 | 1.27 | 1.59 | 0.783 | 0.903 | 0.8 | Cc1c[nH]c(=O)[nH]c1=O [THYMINE]
2 | 1.42 | 0.953 | 1.12 | 1.41 | 0.697 | 0.81 | 0.68 | O=c1ccn(C2CC(O)C(CO)O2)c(=O)[nH]1 (configuration not stated) [DEOXYURIDINE]
3 | 1.92 | 1.24 | 1.49 | 1.89 | 0.95 | 1.09 | 0.937 | CC1OC(n2cnc3c(N)ncnc32)C(O)C1O (configuration not stated) [5'-DEOXYADENOSINE]
4 | 4.79 | 3.83 | 4.23 | 4.78 | 3.19 | 3.47 | 3.17 | O=C(O)Cc1c[nH]c2ccc(O)cc12 [5-HYDROXYINDOLEACETATE]
5 | 1.6 | 1.04 | 1.26 | 1.57 | 0.773 | 0.88 | 0.763 | O=C(O)c1ccnc2ccccc12 [4-QUINOLINECARBOXYLATE]
6 | 8.19 | 7.45 | 7.75 | 8.2 | 7.03 | 7.2 | 7 | NC(Cc1cc(I)c(Oc2ccc(O)c(I)c2)c(I)c1)C(=O)O (configuration not stated) [LIOTHYRONINE]
7 | 3.02 | 2.02 | 2.41 | 2.97 | 1.56 | 1.78 | 1.53 | NC(=O)[C@@H](N)Cc1c[nH]c2ccccc12 [L-TRYPTOPHANAMIDE]
8 | 3.96 | 2.81 | 3.32 | 3.98 | 2.16 | 2.47 | 2.15 | Cn1c(=O)c2[nH]cnc2n(C)c1=O [THEOPHYLLINE]
9 | 17.9 | 16.5 | 17.1 | 17.9 | 15.7 | 16.1 | 15.7 | CCCCCCCCCCCCCCCC(=O)O [PALMITATE]
10 | 2.72 | 1.78 | 2.14 | 2.7 | 1.35 | 1.56 | 1.35 | N[C@@H](Cc1ccc(O)c([N+](=O)[O-])c1)C(=O)O [3-NITRO-L-TYROSINE]
11 | 5.83 | 4.85 | 5.28 | 5.84 | 4.27 | 4.51 | 4.23 | NC(=O)Cc1c[nH]c2ccccc12 [INDOLE-3-ACETAMIDE]
12 | 1.57 | 1.02 | 1.23 | 1.57 | 0.767 | 0.877 | 0.757 | Cc1ncc(CO)c(C(=O)O)c1O [4-PYRIDOXATE]
13 | 5.44 | 4.62 | 4.96 | 5.44 | 4.14 | 4.34 | 4.11 | O=C(O)CCCCC1SCC2NC(=O)NC21 (configuration not stated) [BIOTIN]
14 | 1.39 | 0.943 | 1.12 | 1.37 | 0.703 | 0.76 | 0.663 | O=c1[nH]cnc2c1ncn2C1OC(CO)C(O)C1O (configuration not stated) [INOSINE]
15 | 5.42 | 4.5 | 4.9 | 5.43 | 3.96 | 4.18 | 3.93 | COc1cc(CC(=O)O)ccc1O [HOMOVANILLATE]
16 | 1.76 | 1.18 | 1.38 | 1.74 | 0.847 | 0.95 | 0.823 | Nc1ccccc1S(=O)(=O)O [ANILINE-2-SULFONATE]
17 | 5.46 | 4.34 | 4.82 | 5.47 | 3.64 | 3.94 | 3.59 | O=Cc1ccc(O)cc1 [4-HYDROXYBENZALDEHYDE]
18 | 1.47 | 0.943 | 1.13 | 1.44 | 0.703 | 0.82 | 0.707 | Nc1nc2c(ncn2C2CC(O)C(CO)O2)c(=O)[nH]1 (configuration not stated) [DEOXYGUANOSINE]
19 | 6.55 | 5.64 | 6.02 | 6.55 | 5.1 | 5.32 | 5.08 | CC(=O)NC(Cc1c[nH]c2ccccc12)C(=O)O (configuration not stated) [N-ACETYLTRYPTOPHAN]
20 | 5.13 | 4.22 | 4.61 | 5.14 | 3.66 | 3.89 | 3.63 | O=C(O)CCCCCC(=O)O [6-CARBOXYHEXANOATE]
21 | 6.08 | 5.22 | 5.55 | 6.08 | 4.62 | 4.87 | 4.59 | O=C([O-])CCCCCCC(=O)[O-] [SUBERATE]
22 | 3.06 | 2.06 | 2.44 | 3.05 | 1.53 | 1.76 | 1.52 | O=C(O)c1ccc(O)c(O)c1 [3,4-DIHYDROXYBENZOATE]
23 | 14.4 | 13.1 | 13.7 | 14.4 | 12.4 | 12.7 | 12.4 | CC(CCC(=O)O)C1CCC2C3CCC4CC(O)CCC4(C)C3CCC12C (configuration not stated) [LITHOCHOLATE]
24 | 2.48 | 1.64 | 1.92 | 2.38 | 1.22 | 1.35 | 1.16 | O=C(O)Cc1cc(O)ccc1O [HOMOGENTISATE]
25 | 3.84 | 2.6 | 3.09 | 3.82 | 1.95 | 2.21 | 1.91 | CC(CC(=O)O)CC(=O)O [METHYGLUTARATE]
26 | 7 | 5.94 | 6.34 | 7.01 | 5.17 | 5.5 | 5.14 | CC(=O)Oc1cccc(O)c1 [RESORCINOL MONOACETATE]
